Data as given in publication doi:10.1101/507434v1 (bioRxiv, 2018).
Read-outs that look alike come from different tables or passages of the source. Bridge positions count the residues as written; N and C are the ends. Square brackets hold non-standard residues; d marks the D form. Ends that are not written are not given here. Peptide text beside a SMILES is read from it. d2Nal = N[C@H](Cc1ccc2ccccc2c1)C(=O)O; Nle = CCCC[C@H](N)C(=O)O

Assays:
[1] = Pharmacokinetics of TCMCB07 in anesthetized rats: plasma and bile levels; format: in vivo, Sprague-Dawley rats
[2] = test system: rats given LPS to induce cachexia; experiment: LPS; format: in vivo, rat; settings: for body weight as percent of pre-LPS baseline (Fig 1 Panel D) / food intake (Fig 1 Panel C): rats given LPS, peptide IP at 2mg/kg, 24 hours following challenge, 8/group; for oral anticachexia activity: LPS challenge, oral route of peptide administration
Lewis sarcoma rat model = experiment: Lewis sarcoma rat cancer cachexia model; format: in vivo; settings: tumor-bearing rats, SC; for summary 6-Day food intake: two daily doses
[3] = Plasma and liver concentration of antiviral peptides after oral gavage in mice; format: in vivo, female mice; settings: for level at time molar at 1 h / level at time molar at 2.5 h / level at time molar at 0.5 h / level at time molar at 2 h / level at time molar at 4 h: female, mouse, po; for level at time molar at 1 h / level at time molar at 2.5 h: 72 mg/kg; for level at time molar at 0.5 h / level at time molar at 2 h / level at time molar at 4 h: 60 mg/kg
[4] = test system: hepatitis C virus (HCV) RNA; experiment: Standard solution assays of anti-hepatitis C activity; format: biochemical
[5] = ref Gallagher et al., 2016, cited from earlier work; for plasma half-life: separate experiment, in vitro or in vivo not stated
[6] = test system: orthotopic human breast cancer cell line transplant (cell line MDA-MB-231); settings: ref Gallagher et al., 2016; cited from earlier work
[7] = ref Iusuf et al., 2008; cited from earlier work
HCV replicon = settings: cellular HCV replicon assay; ref Bradford and Cowan, 2012; cited from earlier work

## CCCC[C@H](NC(C)=O)C(=O)N[C@H]1CC(=O)NCCCC[C@@H](C(=O)N[C@@H](C(=O)N2CCC[C@@H]2C(N)=O)C(C)C)NC(=O)[C@H](Cc2c[nH]c3ccccc23)NC(=O)[C@H](CCCN=C(N)N)NC(=O)[C@@H](Cc2ccc3ccccc3c2)NC(=O)[C@@H]2CCCN2C1=O [TCMCB07] (Ac-[Nle]DP[d2Nal]RWK[dV][dP]-NH2; lactam 2-7)
[1]; Sprague-Dawley, rat, plasma, sc, 3 mg/kg
  Tmax: 2.5 h
[1]; anesthetized rats, 3mg/kg SC (Fig. 3)
  in vivo mechanism of clearance: hepatic blood-to-bile transport

## CCCC[C@H](NC(C)=O)C(=O)N[C@H]1CC(=O)NCCCC[C@@H](C(=O)N[C@@H](C(=O)N2CCC[C@@H]2C(N)=O)C(C)C)NC(=O)[C@H](Cc2c[nH]c3ccccc23)NC(=O)[C@H](CCCNC(=N)N)NC(=O)[C@@H](Cc2ccc3ccccc3c2)NC(=O)[C@@H]2CCCN2C1=O [TCMCB07] (Ac-[Nle]DP[d2Nal]RWK[dV][dP]-NH2; lactam 2-7)
[2]
  body weight as percent of pre-LPS baseline (Fig 1 Panel D): produced a significant weight gain
  food intake (Fig 1 Panel C): stimulated appetite
[2]; rats
  oral anticachexia activity: shown to have oral anticachexia activity
Lewis sarcoma rat model; 1.5 and 3 mg/kg BW/day, data not shown
  tumor weight / tumor growth: no effect on tumor growth
Lewis sarcoma rat model; total 1.5 mg/kg BW/day (LB07)
  summary 6-Day food intake: not different than Sham/saline controls
Lewis sarcoma rat model; total 3mg/kg BW/day (HB07)
  summary 6-Day food intake: not different than Sham/saline controls

## CC(=O)NCC(=O)NCC(=O)N[C@@H](Cc1c[nH]cn1)C(=O)N[C@H]1CC(=O)NCCCC[C@@H](C(=O)N[C@@H](C(=O)N2CCC[C@@H]2C(N)=O)C(C)C)NC(=O)[C@H](CCCCN)NC(=O)[C@H](Cc2ccccc2)NC(=O)[C@H](CCCNC(=N)N)NC(=O)[C@H](Cc2ccc(O)cc2)NC1=O [TCMP01] (Ac-GGHDYRFKK[dV][dP]-NH2; lactam 4-9)
[3]; liver
  level at time molar at 1 h: 14 nM
  level at time molar at 2.5 h: 4 nM
[3]; plasma
  level at time molar at 1 h: 1000 nM
  level at time molar at 2.5 h: 24 nM
[4]
  solution antihepatitis activity relative to the parent peptide Metallo-drug 2-Cu: within a factor of two

## CC(=O)NCC(=O)NCC(=O)N[C@@H](Cc1c[nH]cn1)C(=O)N[C@H]1CC(=O)NCCCC[C@@H](C(=O)N[C@@H](C(=O)N2CCC[C@@H]2C(N)=O)C(C)C)NC(=O)[C@H](CCCCN)NC(=O)[C@H](Cc2ccccc2)NC(=O)[C@H](CCCNC(=N)N)NC(=O)[C@H](Cc2ccc(O)cc2)NC(=O)[C@@H]2CCCN2C1=O [TCMP03] (Ac-GGHDPYRFKK[dV][dP]-NH2; lactam 4-10)
[3]; liver
  level at time molar at 0.5 h: 43 nM
  level at time molar at 2 h: 30 nM
  level at time molar at 4 h: 4 nM
[3]; plasma
  level at time molar at 0.5 h: 2910 nM
  level at time molar at 2 h: 75700 nM
  level at time molar at 4 h: 384 nM
[3]; mice, oral gavage, Table 3
  enhancement of hepatic (target tissue) uptake relative to TCMP01: 4 fold
[4]
  solution antihepatitis activity relative to the parent peptide Metallo-drug 2-Cu: within a factor of two

## Ac-Nle-^1 c(Asp-Pro-D-Nal2’-Arg-Trp-Lys)-D-Pro-D-Val-NH2 (sidechain bridge or staple) [TCMCB02]
[2]; rats
  oral anticachexia activity: no oral anticachexia activity
[2]; rats, parenteral peptide after parenteral LPS, end of 12 hr dark cycle, n=6
  overnight body weight gain: ~5%

## Ac-Nle-c(Asp-Arg-Val-Tyr-Ile-His-Pro-Lys)-D-Val-D-Pro-NH2 (sidechain bridge or staple) [TCANG05]
[5]
  plasma half-life: 50 h
[5]; using in vitro and in vivo assays
  stability compared to angiotensin 1-7: greatly enhanced stability
[6]
  oral activity: orally active

## Ac-Nle-c[Asp-Pro-D-Nal(2′)-Arg-Trp-Lys]-β-Pro-β^2-Val-NH2 (sidechain bridge or staple) [TCMCB05]
[2]
  body weight as percent of pre-LPS baseline (Fig 1 Panel D): produced a significant weight gain
  food intake (Fig 1 Panel C): stimulated appetite

## Ac-Nle-c[Asp-Pro-D-Nal(2′)-Arg-Trp-Lys]-β-Pro-β^3-Val-NH2 (sidechain bridge or staple) [TCMCB06]
[2]
  body weight as percent of pre-LPS baseline (Fig 1 Panel D): no weight gain

## Asp-Arg-Val-Tyr-Ile-His-Pro-OH [angiotensin^1-7, reference compound]
[7]
  plasma half-life: ~0.5 h
[5]
  plasma half-life: 0.5 h
[6]
  oral activity: not orally active

## GGHY[dR]FK [Metallo-drug 2-Cu, reference compound]
[3]; mice, oral gavage, also short circulating half-life and poor liver uptake stated
  oral availability: no oral availability
HCV replicon
  antiviral activity: confirmed
